From ChEMBL document CHEMBL1201862, “PubChem BioAssay data set” (2004) come the findings set out here.

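Step 1: Grow cells in 96-well plates. Step 2: Expose to compound for 48 hours at 5 concentrations. Step 3: Interpolate endpoints linearly; if unreached, use highest concentration. Abbreviation: GI50, concentration required for 50% inhibition of growth.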 Calls of active or inactive are those of the source. No stated cut-off is given here; in the data, active = GI50 up to about 1.1 µM and inactive = higher. Bounds are passed on as bounds.

Test systems include DU-145; EKVX; HCT-116; HCT-15; HOP-62; MDA-MB-435; MDA-N; MOLT-4; NCI-H226; NCI-H460; OVCAR-3; SF-268; SF-295; SK-MEL-28; SK-MEL-2; SK-MEL-5; SN12C; T47D; TK-10; U-251.
What all share (experiment): NCI anticancer screen, dose series, 48 h

In the case of `O=C(O)C(Oc1nc(S)nc(S)n1)(c1ccc(Cl)cc1)c1ccc(Cl)cc1`, the GI50 is > 100 µM (inactive) in the test on DU-145; > 100 µM (inactive) in the test on EKVX; > 100 µM (inactive) in the test with HCT-116; above 100 µM with HCT-15; > 100 µM (inactive) in the test on HOP-62; > 100 µM (inactive) with MDA-MB-435. Also, the GI50 in the test on MDA-N, in the test on MOLT-4, with NCI-H226, with NCI-H460, in the test with OVCAR-3 and in the test on SF-268 was > 100 µM (inactive) in each case. In addition, the GI50 with SF-295, with SK-MEL-28, in the test on SK-MEL-2, with SK-MEL-5, in the test on SN12C and in the test on T47D was > 100 µM (inactive) each time. Also, the GI50 in the test with TK-10 and with U-251 was > 100 µM (inactive) in each case.
For the molecule `N#Cc1c(SCc2ccccc2)nc(-c2ccccc2)[nH]c1=S`, the GI50 in the test on DU-145 is 42 µM (inactive); with EKVX, 31.5 µM (inactive); in the test with HCT-116, 23.7 µM (inactive); with HCT-15, 19.8 µM; in the test with HOP-62 it was 19.8 µM (inactive); with MDA-MB-435, 24 µM (inactive). Moreover, the GI50 with MDA-N was 22.6 µM (inactive); in the test on MOLT-4, 29 µM (inactive); in the test on NCI-H226, 26.5 µM (inactive); in the test on NCI-H460, 23.2 µM (inactive); with OVCAR-3, 18.5 µM (inactive); in the test on SF-268, 22 µM (inactive). The GI50 in the test on SF-295 is 22.4 µM (inactive); in the test with SK-MEL-28, 22.3 µM (inactive); in the test with SK-MEL-2 it was 16.7 µM (inactive); in the test with SK-MEL-5, 19.3 µM (inactive); in the test with SN12C, 32.5 µM (inactive); in the test with T47D, 22.4 µM (inactive). In addition, the values for the GI50 in the test with TK-10 and with U-251 were 32.7 µM (inactive) and 21.4 µM (inactive), respectively.
As for `COC(=O)CCc1cc(OC)c2oc(-c3ccc(OC)c(OC)c3)c(CO)c2c1`, the GI50 in the test with DU-145 is > 100 µM (inactive); in the test with EKVX it was > 100 µM (inactive); in the test on HCT-116 it was > 100 µM (inactive); in the test with HCT-15, above 100 µM; in the test on HOP-62, > 100 µM (inactive); in the test on MDA-MB-435 it was > 100 µM (inactive). Further, the GI50 in the test on MDA-N is > 100 µM (inactive); in the test on MOLT-4, 95.5 µM (inactive); in the test on NCI-H226, > 100 µM (inactive); in the test on NCI-H460, > 100 µM (inactive); with OVCAR-3 it was > 100 µM (inactive); with SF-268 it was > 100 µM (inactive). Further, the GI50 with SF-295 is > 100 µM (inactive); in the test on SK-MEL-28, > 100 µM (inactive); in the test with SK-MEL-2, 65 µM (inactive); in the test with SK-MEL-5, > 100 µM (inactive); in the test with SN12C it was > 100 µM (inactive); with T47D, 86.7 µM (inactive). Also, the GI50 with TK-10 and with U-251 was > 100 µM (inactive) in each case.
Turning to `Brc1cc2nn(-c3ccccc3)nc2c2nonc12`, the GI50 was > 100 µM (inactive) in the test on DU-145; > 100 µM (inactive) in the test on EKVX; > 100 µM (inactive) in the test on HCT-116; above 100 µM with HCT-15; > 100 µM (inactive) in the test with HOP-62; > 100 µM (inactive) with MDA-MB-435. Further, the GI50 in the test on MDA-N, with MOLT-4, in the test with NCI-H226, in the test with NCI-H460, in the test with OVCAR-3 and with SF-268 was > 100 µM (inactive) in each case. For the same molecule, the GI50 in the test on SF-295 is > 100 µM (inactive); with SK-MEL-28, > 100 µM (inactive); with SK-MEL-2, > 100 µM (inactive); in the test on SK-MEL-5, > 100 µM (inactive); with SN12C, > 100 µM (inactive); in the test with T47D it was 28.4 µM (inactive). Further, the GI50 in the test with TK-10 and in the test with U-251 was > 100 µM (inactive) throughout.
